Like-named read-outs stand apart in the source and are kept apart here.
Key:
[1] = system: MycNick cells; assay: Combination treatment with Hydrocortisone: modulation of HC-induced vacuolation, cell density reduction and CIR effect; format: cell-based, murine; details: for sensitization to induction of vacuolation elicited by Hydrocortisone: 10 days, FIG. 16: Cyclosporin A […], Hydrocortisone 0.3 μM; for Cell density reduction by Hydrocortisone / Vacuolation by Hydrocortisone: Combination treatment with Hydrocortisone for 7 days; for HC-triggered vacuolation in presence of the compound: added to HC
Experimental: Exponentially growing MycNick cells were passaged into 24-well plates at a final confluence of 90% and were allowed to attach for 48 hours before being exposed to a cortisol analog in the presence or absence of a calcineurin inhibitor. […] An inverted tissue culture microscope (Leica) was used to document vacuoles in live cells. Cell density was evaluated under an EVOS FL Auto microscope (Thermo Fisher) after fixation of the treated cells with 4% paraformaldehyde (PFA) in the presence of detergent 0.5% Triton X-100 and subsequently staining of DNA with 5 μg/ml of Propidium Iodide (PI) in the presence of 5 μg/ml of Ribonuclease A from bovine pancreas (RNase A) (Sigma, Cat. # R6513-50MG).
The threshold concentration that was used to elicit no less than 50% of reduction in the cell density was determined. So was the minimal effective concentration that could induce vacuolation to an extent that covered no less than 10% of a random field documented under a bright field microscope. Quantification of the area with vacuolation, multilayer zones or multilayer zones was performed with the Image J software. More than 10 random fields were chosen for quantification for each data point in each of two independent experiments.
A chemical library for enhancers of the CIR effect of HC in MycNick cells was screened.

[2] = system: T2MycNick cells; assay: Testing compounds for their ability of restoring contact inhibition (vacuolation, cell density); format: cell-based, murine; details: for vacuolation (in words): compound alone, up to 10 μM; for minimal effective concentration: T2MycNick cells grown beyond confluence, 7-14 days
Experimental: Exponentially growing MycNick cells were passaged into 24-well plates at a final confluence of 90% and were allowed to attach for 48 hours before being exposed to a cortisol analog in the presence or absence of a calcineurin inhibitor. After the initiation of treatment, the cells were allowed to grow beyond confluence for 7 days before being subjected to morphological analysis and cell density. An inverted tissue culture microscope (Leica) was used to document vacuoles in live cells. Cell density was evaluated under an EVOS FL Auto microscope (Thermo Fisher) after fixation of the treated cells with 4% paraformaldehyde (PFA) in the presence of detergent 0.5% Triton X-100 and subsequently staining of DNA with 5 μg/ml of Propidium Iodide (PI) in the presence of 5 μg/ml of Ribonuclease A from bovine pancreas (RNase A) (Sigma, Cat. # R6513-50MG).
Exponentially growing murine cells expressing Myc-Nick (T2MycNick cells) were passaged into 24-well plates at a final confluence of 20% and were allowed to attach overnight before being exposed to a test compound at a concentration of 10 μM. […] The cells were subjected to daily analysis of viability and morphology under an inverted tissue culture microscope or GE InCell Analyzer 2000. Cell density was documented after staining of DNA with PI 7-10 days after the initiation of treatment.

[3] = Mus musculus, PI staining, read-out: Conc that reduces > 50% in the cell density
[4] = Mus musculus, vacuolation covering no less than 10% of a random field, read-out: Min. effective conc. that elicits vacuolation
[5] = PI staining, read-out: Conc that reduces > 50% in the cell density
[6] = vacuolation covering no less than 10% of a random field, read-out: Min. effective conc. that elicits vacuolation

CC[C@@H]1/C=C(\C)C[C@H](C)C[C@H](OC)[C@H]2O[C@@](O)(C(=O)C(=O)N3CCCC[C@H]3C(=O)O[C@H](/C(C)=C/[C@@H]3CC[C@@H](O)[C@H](OC)C3)[C@H](C)[C@@H](O)CC1=O)[C@H](C)C[C@@H]2OC [CI034, Ascomycin]
sensitization to induction of vacuolation elicited by Hydrocortisone [1]: sensitizes
Cell density reduction by Hydrocortisone [1]: Enhanced
Vacuolation by Hydrocortisone [1]: Enhanced
vacuolation (in words) [2]: did not elicit vacuolation

CC[C@@H]1/C=C(\C)C[C@H](C)C[C@H](OC)[C@H]2O[C@@](O)(C(=O)C(=O)N3CCCC[C@H]3C(=O)O[C@H](/C(C)=C/[C@@H]3CC[C@H](Cl)[C@H](OC)C3)[C@H](C)[C@@H](O)CC1=O)[C@H](C)C[C@@H]2OC [CI040, Pimecrolimus]
sensitization to induction of vacuolation elicited by Hydrocortisone [1]: sensitizes
Cell density reduction by Hydrocortisone [1]: Enhanced
Vacuolation by Hydrocortisone [1]: Enhanced
vacuolation (in words) [2]: did not elicit vacuolation

C=CC[C@@H]1/C=C(\C)C[C@H](C)C[C@H](OC)[C@H]2O[C@@](O)(C(=O)C(=O)N3CCCC[C@H]3C(=O)O[C@H](/C(C)=C/[C@@H]3CC[C@@H](O)[C@H](OC)C3)[C@H](C)[C@@H](O)CC1=O)[C@H](C)C[C@@H]2OC [CI046, Tacrolimus]
sensitization to induction of vacuolation elicited by Hydrocortisone [1]: sensitizes
Cell density reduction by Hydrocortisone [1]: Enhanced
Vacuolation by Hydrocortisone [1]: Enhanced
vacuolation (in words) [2]: did not elicit vacuolation

CC(=O)OCC(=O)[C@@]12OC(C)(C)O[C@@H]1C[C@H]1[C@@H]3C[C@H](F)C4=CC(=O)C=C[C@]4(C)[C@@]3(F)[C@@H](O)C[C@@]12C [CI048, Fluocinonide]
minimal effective concentration [2, 3]: 2.5 µM
minimal effective concentration [2, 4]: 0.625 µM

C[C@]12CCC(=O)C=C1CC[C@@H]1[C@@H]2CC[C@@]2(C)[C@H]1CC[C@]2(O)C(=O)CO [CI049, Cortodoxone]
minimal effective concentration [2, 3]: 10 µM
minimal effective concentration [2, 4]: 5 µM

CC(=O)OCC(=O)[C@@]1(O)CC[C@H]2[C@@H]3CCC4=CC(=O)CC[C@]4(C)[C@H]3[C@@H](O)C[C@@]21C [HC003, Hydrocortisone 21-acetate]
minimal effective concentration [2, 5]: 2 µM
minimal effective concentration [2, 6]: >10 µM

CCCC(=O)O[C@]1(C(=O)CO)CC[C@H]2[C@@H]3CCC4=CC(=O)CC[C@]4(C)[C@H]3[C@@H](O)C[C@@]21C [HC004, Hydrocortisone 17-Butyrate]
minimal effective concentration [2, 5]: 10 µM
minimal effective concentration [2, 6]: >10 µM

CC(=O)OCC(=O)[C@@]1(O)[C@H](C)C[C@H]2[C@@H]3CCC4=CC(=O)C=C[C@]4(C)[C@@]3(F)[C@@H](O)C[C@@]21C [HC005, Dexamethasone 21-acetate]
minimal effective concentration [2, 5]: 10 µM
minimal effective concentration [2, 6]: >10 µM

CC#C[C@]1(O)CC[C@H]2[C@@H]3CCC4=CC(=O)CCC4=C3[C@@H](c3ccc(N(C)C)cc3)C[C@@]21C [Mifepristone]
CIR effect of HC in presence of antagonist ([1]; 5 μM of Mifepristone): completely blocked
contact inhibition restoration (CIR) activity ([2]; high-density cells): failed to elicit

Cn1c(=O)cc(N2CCC[C@@H](N)C2)n(Cc2ccccc2C#N)c1=O [alogliptin]
HC-triggered vacuolation in presence of the compound [1]: failed to inhibit

CC#CCn1c(N2CCC[C@@H](N)C2)nc2c1c(=O)n(Cc1nc(C)c3ccccc3n1)c(=O)n2C [linagliptin]
HC-triggered vacuolation in presence of the compound [1]: failed to inhibit

Source: patent publication US20240100068A1, “METHODS COMPRISING ADMINISTRATION OF A GLUCOCORTICOID RECEPTOR AGONIST AND AN INHIBITOR OF CALCINEURIN” (Chengdu Anticancer Bioscience, Ltd., priority 2022, published 2024)
